# In patent US12290588B2, “Peptide having activity of improving skin condition and use thereof” (CAREGEN CO., LTD., priority 2019, dated 2025):
# How the values were obtained:
# PPAR-δ = test: RT-PCR of PPAR-δ expression in fibroblasts; format: cell-based; conditions: NIH3T3 mouse fibroblasts, peptide 10, 50 or 100 μM, 24 hours, PCR (FIG. 2)
# Description: (§1) In this example, an effect the peptide according to an embodiment on the cellular activity of fibroblasts was to be confirmed by measuring the expression levels of PPAR-γ, PPAR-δ, and PGC-1α, which are mitochondrial biogenesis-related genes. In detail, NIH3T3 mouse fibroblasts were seeded in a 6-well plate at a density of 3×10^5 cells/well, and cultured for 16 hours. Afterwards, the culture medium was replaced with a serum-free medium, the peptide consisting of the amino acid sequence of SEQ ID NO: 1 was added thereto at a concentration of 10 μM, 50 μM, or 100 μM, and the cells were cultured for 24 hours. Then, mRNA was extracted from the cultured cells, and reverse-transcribed into cDNA by using a cDNA synthesis kit and PCR pre-mix (Intron, Korea). Afterwards, a polymerase chain reaction (PCR) was performed by using the cDNA and primers of PPAR-γ, PPAR-δ, and PGC-1α. Meanwhile, a control group and positive groups were used in the same manner as in Example 2, and the nucleotide sequences of the primers used herein are shown in Table 2.
# cleaved PARP-1 = test: Western blotting of cleaved PARP-1 in UV-irradiated keratinocytes; format: cell-based, human; conditions: HaCaT keratinocytes, UV 15 J/cm^2, peptide 10, 50 or 100 μM before and 24 hours after irradiation, western blotting (FIG. 4)
# Description: (§2) NIH3T3 mouse fibroblasts or HaCaT human keratinocytes were respectively seeded in a 6-sell plate at a density of 3×10^5 cells/well, and cultured for 16 hours. Afterwards, the culture medium was replaced with a serum-free medium, the peptide consisting of the amino acid sequence of SEQ ID NO: 1 was added thereto at a concentration of 10 μM, 50 μM, or 100 μM, and the cells were cultured for 1 hour. Each well containing the cultured cells was washed with phosphate buffered saline (PBS), and the NIH3T3 cells or HaCaT cells were respectively irradiated with ultraviolet light of 6 J/cm^2 or 15 J/cm^2, so as to induce an increase in the expression of apoptosis proteins. Afterwards, the culture medium was replaced with a serum-free medium, the peptide consisting of the amino acid sequence of SEQ ID NO: 1 was added thereto at a concentration of 10 μM, 50 μM, or 100 μM, and the cells were cultured for 24 hours. Cell lysates were obtained by adding a lysis buffer to the cultured cells, and then, western blotting was performed thereon by using cleaved PARP-1 and cleaved caspase-3 antibodies (Santacruz biotechnology, USA). Meanwhile, a non-treated group (Con) was used as a control group. […]
# cleaved caspase-3 [1] = test: Western blotting of cleaved caspase-3 in UV-irradiated keratinocytes; format: cell-based, human; conditions: HaCaT keratinocytes, UV 15 J/cm^2, peptide 10, 50 or 100 μM before and 24 hours after irradiation, western blotting (FIG. 4)
# Description: as §2
# cleaved caspase-3 [2] = test: Western blotting of cleaved caspase-3 in UV-irradiated fibroblasts; format: cell-based, mouse; conditions: NIH3T3 fibroblasts, UV 6 J/cm^2, peptide 10, 50 or 100 μM before and 24 hours after irradiation, western blotting (FIG. 3)
# Description: as §2
# MMP-2 = test: Gelatin zymography of MMP-2 activity in UV-irradiated fibroblasts; format: cell-based, mouse; conditions: NIH3T3 fibroblasts, UV 6 J/cm^2, peptide 10, 50 or 100 μM before and 24 hours after irradiation, gelatin zymography (FIG. 5)
# Description: (§3) NIH3T3 mouse fibroblasts were seeded in a 6-well plate at a density of 3×10^5 cells/well, and cultured for 16 hours. Afterwards, the culture medium was replaced with a serum-free medium, the peptide consisting of the amino acid sequence of SEQ ID NO: 1 was added thereto at a concentration of 10 μM, 50 μM, or 100 μM, and the cells were cultured for 1 hour. Each well containing the cultured cells was washed with PBS, and the NIH3T3 cells were irradiated with ultraviolet light of 6 J/cm^2, so as to induce an increase in the expression of MMP-1 and MMP-2. Afterwards, the culture medium was replaced with a serum-free medium, the peptide consisting of the amino acid sequence of SEQ ID NO: 1 was added thereto at a concentration of 10 μM, 50 μM, or 100 μM, and the cells were cultured for 24 hours. Afterwards, cell lysates were obtained by adding a lysis buffer to the cultured cells, and then, western blotting was performed thereon by using MMP-1 antibodies (cell signaling, USA) to measure the expression of MMP-1.
# Meanwhile, the cell lysates were subjected to gelatin zymography to measure the activity of MMP-2. In detail, after protein electrophoresis (SDS-PAGE) was performed by using 2 mg/ml of gelatin as a substrate. […]
# IL-1β = test: RT-PCR of IL-1β expression in UV-irradiated keratinocytes; format: cell-based, human; conditions: HaCaT keratinocytes, peptide 10, 50 or 100 μM for 1 hour, UV 15 J/cm^2, PCR (FIG. 8)
# Description: (§4) HaCaT human keratinocytes were seeded in a 6-well plate at a density of 3×10^5 cells/well, and cultured for 16 hours. Afterwards, the culture medium was replaced with a serum-free medium, the peptide consisting of the amino acid sequence of SEQ ID NO: 1 was added thereto at a concentration of 10 μM, 50 μM, or 100 μM, and the cells were cultured for 1 hour. Each well containing the cultured cells was washed with PBS, and the HaCaT cells were irradiated with ultraviolet light of 15 J/cm^2, so as to induce an increase in the expression of inflammatory cytokine which is an inflammatory factor. Then, mRNA was extracted from the cultured cells, and reverse-transcribed into cDNA by using a cDNA synthesis kit and PCR pre-mix (Intron, Korea). Afterwards, PCR was performed by using the cDNA and primers of TNF-α, COX-2, IL-1β, and IL-6. Meanwhile, a control group and a positive group were used in the same manner as in Example 4, and the nucleotide sequences of the primers used herein are shown in Table 5.
# Col1a1 = test: RT-PCR of Col1a1 expression in UV-irradiated fibroblasts; format: cell-based, mouse; conditions: NIH3T3 fibroblasts, UV 6 J/cm^2, peptide 10, 50 or 100 μM before and 6 hours after irradiation, PCR (FIG. 6)
# Description: (§5) In this example, changes in the cellular activity of fibroblasts were evaluated through the expression of Col1a1, Fibronectin, and Elastin, which are known as components of the dermis. Also, changes in the cellular activity of keratinocytes were evaluated through the expression of SIRT1, which is an anti-aging gene, and AQP3, which is a component of the skin barrier. Based on the evaluation results, the effect of the peptide according to an embodiment on the restoration of the cellular activity of the fibroblasts and keratinocytes was confirmed. In detail, NIH3T3 mouse fibroblasts or HaCaT human keratinocytes were respectively seeded in a 6-sell plate at a density of 3×10^5 cells/well, and cultured for 16 hours. Afterwards, the culture medium was replaced with a serum-free medium, the peptide consisting of the amino acid sequence of SEQ ID NO: 1 was added thereto at a concentration of 10 μM, 50 μM, or 100 μM, and the cells were cultured for 1 hour. Each well containing the cultured cells was washed with PBS, and the NIH3T3 cells or the HaCaT cells were respectively irradiated with ultraviolet light of 6 J/cm^2 or 20 J/cm^2, so as to induce inhibition of the cellular activity. […]
# SIRT1 = test: RT-PCR of SIRT1 expression in UV-irradiated keratinocytes; format: cell-based, human; conditions: HaCaT keratinocytes, UV 20 J/cm^2, peptide 10, 50 or 100 μM before and 6 hours after irradiation, PCR (FIG. 7)
# Description: as §5
# AQP3 = test: RT-PCR of AQP3 expression in UV-irradiated keratinocytes; format: cell-based, human; conditions: HaCaT keratinocytes, UV 20 J/cm^2, peptide 10, 50 or 100 μM before and 6 hours after irradiation, PCR (FIG. 7)
# Description: as §5
# PGC-1α = test: RT-PCR of PGC-1α expression in fibroblasts; format: cell-based; conditions: NIH3T3 mouse fibroblasts, peptide 10, 50 or 100 μM, 24 hours, PCR (FIG. 2)
# Description: as §1
# MMP-1 = test: Western blotting of MMP-1 in UV-irradiated fibroblasts; format: cell-based, mouse; conditions: NIH3T3 fibroblasts, UV 6 J/cm^2, peptide 10, 50 or 100 μM before and 24 hours after irradiation, western blotting (FIG. 5)
# Description: as §3
# procollagen 1α = test: Procollagen 1α ELISA in fibroblast medium; format: cell-based; conditions: NIH3T3 mouse fibroblasts, peptide 10, 50 or 100 μM, 24 hours, ELISA of medium (FIG. 1)
# Description: NIH3T3 mouse fibroblasts were seeded in a 6-well plate at a density of 5×10^3 cells/well, and cultured for 16 hours. Afterwards, the culture medium was replaced with a serum-free medium, the peptide consisting of the amino acid sequence of SEQ ID NO: 1 was added thereto at a concentration of 10 μM, 50 μM, or 100 μM, and the cells were cultured for 24 hours. Then, the amount of procollagen 1α in the medium was measured by using a Procollagen 1α ELISA kit (Us biological lifescience, USA). Meanwhile, a non-treated group (Con) was used as a control group, and a group to which 100 nM of bFGF was added and a group to which 5 ng/ml of TGF-β1 was added were used as positive control groups.
# Elastin = test: RT-PCR of Elastin expression in UV-irradiated fibroblasts; format: cell-based, mouse; conditions: NIH3T3 fibroblasts, UV 6 J/cm^2, peptide 10, 50 or 100 μM before and 6 hours after irradiation, PCR (FIG. 6)
# Description: as §5
# PPAR-γ = test: RT-PCR of PPAR-γ expression in fibroblasts; format: cell-based; conditions: NIH3T3 mouse fibroblasts, peptide 10, 50 or 100 μM, 24 hours, PCR (FIG. 2)
# Description: as §1
# Fibronectin = test: RT-PCR of Fibronectin expression in UV-irradiated fibroblasts; format: cell-based, mouse; conditions: NIH3T3 fibroblasts, UV 6 J/cm^2, peptide 10, 50 or 100 μM before and 6 hours after irradiation, PCR (FIG. 6)
# Description: as §5
# IL-6 = test: RT-PCR of IL-6 expression in UV-irradiated keratinocytes; format: cell-based, human; conditions: HaCaT keratinocytes, peptide 10, 50 or 100 μM for 1 hour, UV 15 J/cm^2, PCR (FIG. 8)
# Description: as §4
# COX-2 = test: RT-PCR of COX-2 expression in UV-irradiated keratinocytes; format: cell-based, human; conditions: HaCaT keratinocytes, peptide 10, 50 or 100 μM for 1 hour, UV 15 J/cm^2, PCR (FIG. 8)
# Description: as §4
# TNF-α = test: RT-PCR of TNF-α expression in UV-irradiated keratinocytes; format: cell-based, human; conditions: HaCaT keratinocytes, peptide 10, 50 or 100 μM for 1 hour, UV 15 J/cm^2, PCR (FIG. 8)
# Description: as §4
sequence,measurement,setting,value
ECEELEEK (Peptide 1) [SEQ ID NO: 1],expression of PPAR-δ,PPAR-δ,increased
same,expression of cleaved PARP-1 increased by ultraviolet irradiation,cleaved PARP-1,significantly reduced
same,expression of cleaved caspase-3 increased by ultraviolet irradiation,cleaved caspase-3 [1],significantly reduced
same,expression of cleaved caspase-3 increased by ultraviolet irradiation,cleaved caspase-3 [2],reduced
same,activity of MMP-2 increased by ultraviolet irradiation,MMP-2,reduced
same,expression of IL-1β increased by ultraviolet irradiation,IL-1β,reduced
same,expression of Col1 a1 inhibited by ultraviolet irradiation,Col1a1,restored back to normal levels
same,expression of SIRT1 reduced by ultraviolet irradiation,SIRT1,restored
same,expression of AQP3 reduced by ultraviolet irradiation,AQP3,restored
same,expression of PGC-1α,PGC-1α,increased
same,expression of MMP-1 increased by ultraviolet irradiation,MMP-1,reduced
same,expression of procollagen 1α,procollagen 1α,increased
same,expression of Elastin inhibited by ultraviolet irradiation,Elastin,restored back to normal levels
same,expression of PPAR-γ,PPAR-γ,increased
same,expression of Fibronectin inhibited by ultraviolet irradiation,Fibronectin,restored back to normal levels
same,expression of IL-6 increased by ultraviolet irradiation,IL-6,reduced
same,expression of COX-2 increased by ultraviolet irradiation,COX-2,reduced
same,expression of TNF-α increased by ultraviolet irradiation,TNF-α,reduced
